Measured values from patent US20070227388A1, “Tetrakisazo Compound, Coloring Matter for Recording, Ink Composition and Colored Article” (priority 2004, published 2007).

Assay: solubility test in water (ammonia alkali) by filter paper spot
Assay type: physicochemical
Method: (Desalination process) After 83.0 parts of the compound of Formula (28) obtained in the fifth process was dissolved in 800 parts of water, 900 parts of methanol was added, and the deposited coloring matter was filtered and then dried to obtain 66.4 parts of desalted black coloring matter of Formula (28) (a compound No. 1 in Table 1: Na salt). The maximum absorption wavelength (λ max) of this coloring matter in water was 619 nm, and solubility test in water (ammonia alkali) by filter paper spot was no less than 100 g/l. [drawing 72]
In the case of `COc1ccc(N=Nc2c(S(=O)(=O)O)cc3c(S(=O)(=O)O)c(N=Nc4cc(S(=O)(=O)O)c5cc(S(=O)(=O)O)c(N=Nc6ccc7c(O)c(N=Nc8ccccc8S(=O)(=O)O)c(S(=O)(=O)O)cc7c6)c(O)c5c4N)ccc3c2O)c(S(=O)(=O)O)c1` [No. 1], the solubility is reported as ≥ 100 mg/mL.
In the case of `Nc1c(N=Nc2cc3c(O)c(N=Nc4ccc([N+](=O)[O-])cc4S(=O)(=O)O)c(S(=O)(=O)O)cc3cc2S(=O)(=O)O)cc(S(=O)(=O)O)c2cc(S(=O)(=O)O)c(N=Nc3ccc4c(O)c(N=Nc5ccc([N+](=O)[O-])cc5S(=O)(=O)O)c(S(=O)(=O)O)cc4c3S(=O)(=O)O)c(O)c12` [No. 13], the solubility is reported as ≥ 100 mg/mL.
In the case of `COc1ccc(N=Nc2c(S(=O)(=O)O)cc3cc(N=Nc4c(S(=O)(=O)O)cc5c(S(=O)(=O)O)cc(N=Nc6ccc7cc(S(=O)(=O)O)c(N=Nc8ccc(OC)cc8S(=O)(=O)O)c(O)c7c6)c(N)c5c4O)ccc3c2O)c(S(=O)(=O)O)c1` [No. 21], the solubility is reported as ≥ 100 mg/mL.
In the case of `Nc1c(N=Nc2ccc3c(O)c(N=Nc4ccc([N+](=O)[O-])cc4S(=O)(=O)O)c(S(=O)(=O)O)cc3c2S(=O)(=O)O)cc(S(=O)(=O)O)c2cc(S(=O)(=O)O)c(N=Nc3ccc4c(O)c(N=Nc5ccc([N+](=O)[O-])cc5S(=O)(=O)O)c(S(=O)(=O)O)cc4c3S(=O)(=O)O)c(O)c12` [No. 16], the solubility is reported as ≥ 100 mg/mL.
In the case of `Nc1c(N=Nc2ccc3cc(S(=O)(=O)O)c(N=Nc4ccc([N+](=O)[O-])cc4S(=O)(=O)O)c(O)c3c2)cc(S(=O)(=O)O)c2cc(S(=O)(=O)O)c(N=Nc3ccc4c(O)c(N=Nc5ccc([N+](=O)[O-])cc5S(=O)(=O)O)c(S(=O)(=O)O)cc4c3S(=O)(=O)O)c(O)c12` [No. 6], the solubility is reported as ≥ 100 mg/mL.
For `Nc1c(N=Nc2ccc3c(O)c(N=Nc4cc(C(=O)O)cc(C(=O)O)c4)c(S(=O)(=O)O)cc3c2S(=O)(=O)O)cc(S(=O)(=O)O)c2cc(S(=O)(=O)O)c(N=Nc3ccc4c(O)c(N=Nc5cc(C(=O)O)cc(C(=O)O)c5)c(S(=O)(=O)O)cc4c3S(=O)(=O)O)c(O)c12` [No. 17], the solubility was ≥ 100 mg/mL.
With `COc1ccc(N=Nc2c(S(=O)(=O)O)cc3c(S(=O)(=O)O)c(N=Nc4cc(S(=O)(=O)O)c5cc(S(=O)(=O)O)c(N=Nc6ccc7c(O)c(N=Nc8ccc(OC)cc8S(=O)(=O)O)c(S(=O)(=O)O)cc7c6S(=O)(=O)O)c(O)c5c4N)ccc3c2O)c(S(=O)(=O)O)c1` [No. 19] the solubility was ≥ 100 mg/mL.
For `COc1ccc(N=Nc2c(S(=O)(=O)O)cc3cc(S(=O)(=O)O)c(N=Nc4cc(S(=O)(=O)O)c5cc(S(=O)(=O)O)c(N=Nc6ccc7c(O)c(N=Nc8ccccc8S(=O)(=O)O)c(S(=O)(=O)O)cc7c6)c(O)c5c4N)cc3c2O)c(S(=O)(=O)O)c1` [No. 2], the solubility was ≥ 100 mg/mL.
